Values of other authors, collected in PMC3310340 (Bioconjugate Chemistry, 2012).

Tested on: rats
Conditions: administered orally to rats; ref material safety data sheet for KHP

SMILES: O=C(O)c1ccccc1C(=O)O [KHP, potassium biphthalate]
- LD50: > 3200 mg/kg
